# Assay results taken from patent US6358885B1, “Substituted phenylheterocyclic herbicides” (Mississippi State University, priority 1992, dated 2002).
# Legend:
# Test in all cases: Test B preemergence/postemergence greenhouse plant response rating 0 to 10
# Conditions in all cases: 0 to 10 scale
# barley = type: in vivo, Hordeum vulgare
# How it was run: (§1)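 Postemergence treatment of plants two to eighteen cm tall ran alongside preemergence treatment of planted seed, each using compound in a non-phytotoxic solvent.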
# barnyardgrass = type: in vivo, Echinochloa crus-galli
# How it was run: as §1
# bedstraw = type: in vivo, Galium aparine
# How it was run: as §1
# blackgrass = type: in vivo, Alopecurus myosuroides
# How it was run: as §1
# cheatgrass = type: in vivo, Bromus secalinus
# How it was run: as §1
# chickweed = type: in vivo, Stellaria media
# How it was run: as §1
# cocklebur = type: in vivo, Xanthium pensylvanicum
# How it was run: as §1
# corn = type: in vivo, Zea mays
# How it was run: as §1
# cotton = type: in vivo, Gossypium hirsutum
# How it was run: as §1
# crabgrass = type: in vivo, Digitaria spp.
# How it was run: as §1
# giant foxtail = type: in vivo, Setaria faberii
# How it was run: as §1
# lambsquarters = type: in vivo, Chenopodium album
# How it was run: as §1
# morningglory = type: in vivo, Ipomoea hederacea
# How it was run: as §1
# rape = type: in vivo, Brassica napus
# How it was run: as §1
# rice = type: in vivo, Oryza sativa
# How it was run: as §1
# sorghum = type: in vivo, Sorghum bicolor
# How it was run: as §1
# soybean = type: in vivo, Glycine max
# How it was run: as §1
# sugar beet = type: in vivo, Beta vulgaris
# How it was run: as §1
# velvetleaf = type: in vivo, Abutilon theophrasti
# How it was run: as §1
# wheat = type: in vivo, Triticum aestivum
# How it was run: as §1
# wild buckwheat = type: in vivo, Polygonum convolvulus
# How it was run: as §1
# wild oat = type: in vivo, Avena fatua
# How it was run: as §1
# purple nutsedge = type: in vivo, Cyperus rotundus
# How it was run: as §1
structure (smiles),measurement,setting,value
COCCN1C(=O)COc2cc(F)c(-c3nn4c(c3Cl)CCCC4)cc21 [Compound 53],"Plant response rating, Barley","barley; POSTEMERGENCE, Rate 10 g/ha",4
same,"Plant response rating, Barley","barley; POSTEMERGENCE, Rate 50 g/ha",6
same,"Plant response rating, Barley","barley; PREEMERGENCE, Rate 10 g/ha",1
same,"Plant response rating, Barley","barley; PREEMERGENCE, Rate 50 g/ha",1
same,"Plant response rating, Barnyardgrass","barnyardgrass; POSTEMERGENCE, Rate 10 g/ha",3
same,"Plant response rating, Barnyardgrass","barnyardgrass; POSTEMERGENCE, Rate 50 g/ha",6
same,"Plant response rating, Barnyardgrass","barnyardgrass; PREEMERGENCE, Rate 10 g/ha",2
same,"Plant response rating, Barnyardgrass","barnyardgrass; PREEMERGENCE, Rate 50 g/ha",2
same,"Plant response rating, Bedstraw","bedstraw; POSTEMERGENCE, Rate 10 g/ha",8
same,"Plant response rating, Bedstraw","bedstraw; POSTEMERGENCE, Rate 50 g/ha",10
same,"Plant response rating, Bedstraw","bedstraw; PREEMERGENCE, Rate 10 g/ha",8
same,"Plant response rating, Bedstraw","bedstraw; PREEMERGENCE, Rate 50 g/ha",9
same,"Plant response rating, Blackgrass","blackgrass; POSTEMERGENCE, Rate 10 g/ha",5
same,"Plant response rating, Blackgrass","blackgrass; POSTEMERGENCE, Rate 50 g/ha",5
same,"Plant response rating, Blackgrass","blackgrass; PREEMERGENCE, Rate 10 g/ha",4
same,"Plant response rating, Blackgrass","blackgrass; PREEMERGENCE, Rate 50 g/ha",6
same,"Plant response rating, Cheatgrass","cheatgrass; POSTEMERGENCE, Rate 10 g/ha",5
same,"Plant response rating, Cheatgrass","cheatgrass; POSTEMERGENCE, Rate 50 g/ha",4
same,"Plant response rating, Cheatgrass","cheatgrass; PREEMERGENCE, Rate 10 g/ha",3
same,"Plant response rating, Cheatgrass","cheatgrass; PREEMERGENCE, Rate 50 g/ha",4
same,"Plant response rating, Chickweed","chickweed; POSTEMERGENCE, Rate 10 g/ha",9
same,"Plant response rating, Chickweed","chickweed; POSTEMERGENCE, Rate 50 g/ha",9
same,"Plant response rating, Chickweed","chickweed; PREEMERGENCE, Rate 10 g/ha",10
same,"Plant response rating, Chickweed","chickweed; PREEMERGENCE, Rate 50 g/ha",10
same,"Plant response rating, Cocklebur","cocklebur; POSTEMERGENCE, Rate 10 g/ha",9
same,"Plant response rating, Cocklebur","cocklebur; POSTEMERGENCE, Rate 50 g/ha",10
same,"Plant response rating, Cocklebur","cocklebur; PREEMERGENCE, Rate 10 g/ha",0
same,"Plant response rating, Cocklebur","cocklebur; PREEMERGENCE, Rate 50 g/ha",1
same,"Plant response rating, Corn","corn; POSTEMERGENCE, Rate 10 g/ha",4
same,"Plant response rating, Corn","corn; POSTEMERGENCE, Rate 50 g/ha",4
same,"Plant response rating, Corn","corn; PREEMERGENCE, Rate 50 g/ha",0
same,"Plant response rating, Cotton","cotton; POSTEMERGENCE, Rate 10 g/ha",10
same,"Plant response rating, Cotton","cotton; POSTEMERGENCE, Rate 50 g/ha",10
same,"Plant response rating, Cotton","cotton; PREEMERGENCE, Rate 10 g/ha",0
same,"Plant response rating, Cotton","cotton; PREEMERGENCE, Rate 50 g/ha",2
same,"Plant response rating, Crabgrass","crabgrass; POSTEMERGENCE, Rate 10 g/ha",3
same,"Plant response rating, Crabgrass","crabgrass; POSTEMERGENCE, Rate 50 g/ha",4
same,"Plant response rating, Crabgrass","crabgrass; PREEMERGENCE, Rate 10 g/ha",2
same,"Plant response rating, Crabgrass","crabgrass; PREEMERGENCE, Rate 50 g/ha",6
same,"Plant response rating, Giant foxtail","giant foxtail; POSTEMERGENCE, Rate 10 g/ha",3
same,"Plant response rating, Giant foxtail","giant foxtail; POSTEMERGENCE, Rate 50 g/ha",6
same,"Plant response rating, Giant foxtail","giant foxtail; PREEMERGENCE, Rate 10 g/ha",2
same,"Plant response rating, Giant foxtail","giant foxtail; PREEMERGENCE, Rate 50 g/ha",8
same,"Plant response rating, Lambsquarter","lambsquarters; POSTEMERGENCE, Rate 10 g/ha",10
same,"Plant response rating, Lambsquarter","lambsquarters; POSTEMERGENCE, Rate 50 g/ha",10
same,"Plant response rating, Lambsquarter","lambsquarters; PREEMERGENCE, Rate 50 g/ha",10
same,"Plant response rating, Morningglory","morningglory; POSTEMERGENCE, Rate 10 g/ha",9
same,"Plant response rating, Morningglory","morningglory; POSTEMERGENCE, Rate 50 g/ha",10
same,"Plant response rating, Morningglory","morningglory; PREEMERGENCE, Rate 50 g/ha",10
same,"Plant response rating, Rape","rape; POSTEMERGENCE, Rate 10 g/ha",10
same,"Plant response rating, Rape","rape; POSTEMERGENCE, Rate 50 g/ha",10
same,"Plant response rating, Rape","rape; PREEMERGENCE, Rate 50 g/ha",2
same,"Plant response rating, Rice","rice; POSTEMERGENCE, Rate 10 g/ha",4
same,"Plant response rating, Rice","rice; POSTEMERGENCE, Rate 50 g/ha",4
same,"Plant response rating, Rice","rice; PREEMERGENCE, Rate 50 g/ha",1
same,"Plant response rating, Sorghum","sorghum; POSTEMERGENCE, Rate 10 g/ha",3
same,"Plant response rating, Sorghum","sorghum; POSTEMERGENCE, Rate 50 g/ha",3
same,"Plant response rating, Sorghum","sorghum; PREEMERGENCE, Rate 50 g/ha",6
same,"Plant response rating, Soybean","soybean; POSTEMERGENCE, Rate 10 g/ha",9
same,"Plant response rating, Soybean","soybean; POSTEMERGENCE, Rate 50 g/ha",9
same,"Plant response rating, Soybean","soybean; PREEMERGENCE, Rate 50 g/ha",0
same,"Plant response rating, Sugar beet","sugar beet; POSTEMERGENCE, Rate 10 g/ha",10
same,"Plant response rating, Sugar beet","sugar beet; POSTEMERGENCE, Rate 50 g/ha",10
same,"Plant response rating, Sugar beet","sugar beet; PREEMERGENCE, Rate 50 g/ha",9
same,"Plant response rating, Velvetleaf","velvetleaf; POSTEMERGENCE, Rate 10 g/ha",9
same,"Plant response rating, Velvetleaf","velvetleaf; POSTEMERGENCE, Rate 50 g/ha",10
same,"Plant response rating, Velvetleaf","velvetleaf; PREEMERGENCE, Rate 50 g/ha",9
same,"Plant response rating, Wheat","wheat; POSTEMERGENCE, Rate 10 g/ha",7
same,"Plant response rating, Wheat","wheat; POSTEMERGENCE, Rate 50 g/ha",7
same,"Plant response rating, Wheat","wheat; PREEMERGENCE, Rate 50 g/ha",7
same,"Plant response rating, Wild buckwheat","wild buckwheat; POSTEMERGENCE, Rate 10 g/ha",10
same,"Plant response rating, Wild buckwheat","wild buckwheat; POSTEMERGENCE, Rate 50 g/ha",10
same,"Plant response rating, Wild buckwheat","wild buckwheat; PREEMERGENCE, Rate 50 g/ha",9
same,"Plant response rating, Wild oat","wild oat; POSTEMERGENCE, Rate 10 g/ha",6
same,"Plant response rating, Wild oat","wild oat; POSTEMERGENCE, Rate 50 g/ha",7
same,"Plant response rating, Wild oat","wild oat; PREEMERGENCE, Rate 50 g/ha",8
same,"Plant response rating, Nutsedge","purple nutsedge; POSTEMERGENCE, Rate 10 g/ha",6
same,"Plant response rating, Nutsedge","purple nutsedge; POSTEMERGENCE, Rate 50 g/ha",6
same,"Plant response rating, Nutsedge","purple nutsedge; PREEMERGENCE, Rate 50 g/ha",0
